Like-named read-outs stand apart in the source and are kept apart here.
What was measured:
Assay type in all cases: in vivo
[1] = system: Blumeria (Erysiphe) graminis DC. f.sp. tritici E. Marchal; assay: Curative and residual control test, Wheat Powdery Mildew (WPM); details: read-out: Disease control (% efficacy)
Text: (§1) • (a) Wheat Powdery Mildew (WPM): HOST: Wheat (Triticum aestivum L.) variety Kanzler PATHOGEN: Blumeria (Erysiphe) graminis DC. f.sp. tritici E. Marchal • (b) Cucumber Powdery Mildew (QPM): HOST: Cucumber (Cucumis sativus L.) variety Bush pickle PATHOGEN: Erysiphe cichoracearum DC
(§2) This test procedure is for curative and residual control of powdery mildew diseases. • 1. Wheat seed (approximately 8-10/pot) or cucumber seed (1 seed / pot) is planted in 6 cm diameter plastic pots and maintained in the greenhouse. • 2. When the primary leaf (wheat) or the cotyledons (cucumber) is/are fully expanded, formulated test compounds are sprayed with a single nozzle overhead track sprayer at a rate of 200 l/ha. Plants are then allowed to air-dry. • 3. Inoculation precedes treatment by 2 or 3 days in the case of curative evaluations and follows treatment by 3 or 4 days in case of residual evaluations. For inoculation, plants are set up on greenhouse benches with bottom watering mats and inoculated by dusting them with conidia from powdery mildew infected plants (stock cultures at an age of 10-14 days). Between inoculation and treatment for curative evaluations and between treatment and inoculation for residual evaluations, plants are maintained in the greenhouse with bottom watering. • 4. Disease on the primary leaf (wheat) or on the cotyledons (cucumber) as percent leaf area with disease symptoms/signs is evaluated about 7 days after inoculation. In the case of wheat, the tips and bases of the leaves are excluded from the evaluation. Percent disease control is then calculated by the following formula: % disease control = 100 -(% infection in treated plants)/(% infection in untreated plants)x 100 [formula]
(§3) • 1. Technical compounds are formulated in a solvent/surfactant system consisting of 5% acetone and 0.05% Tween 20 in deionized water. Compounds are dissolved in acetone prior to addition of the water; the Tween 20 can be added through either the acetone or the water. Dilutions are made using the solvent/surfactant system. Formulated compounds are prepared using deionized water. • 2. Two kinds of controls are included: • Plants treated with the solvent/surfactant solution and inoculated (Solvent Blank). • Untreated plants which are inoculated (Inoculated Control).

[2] = system: Blumeria (Erysiphe) graminis DC. f.sp. tritici E. Marchal; assay: Zero day protectant test, Wheat Powdery Mildew (WPM); details: wheat variety Kanzler, 0 day protectant test, side-by-side, technical material in 0.5% acetone 0.05% Tween 20 water
Text: (§4) • (a) Wheat Powdery Mildew (WPM): HOST: Wheat (Triticum aestivum L.) variety Kanzler PATHOGEN: Blumeria (Erysiphe) graminis DC. f.sp. tritici E. Marchal • (b) Barley Powdery Mildew (BPM): HOST: Barley (Hordeum vulgare L.) variety Golden Promise PATHOGEN: Blumeria (Erysiphe) graminis DC. f.sp. hordei E. Marchal
(§5) This test is a zero day protectant test for control of wheat and barley powdery mildews. • 1. Wheat or barley seed (approximately 8-10/pot) is planted in 6 cm diameter plastic pots and maintained in the greenhouse. • 2. When the primary leaf is fully expanded, formulated test compounds are sprayed with a single nozzle overhead track sprayer at a rate of 200 l/ha. Plants are then allowed to air-dry. • 3. Inoculation follows about three hours after compound application. Plants are set up on greenhouse benches with bottom watering mats and inoculated by dusting them with conidia from powdery mildew infected plants (stock cultures at an age of 10-14 days). • 4. Disease on the primary leaf as percent leaf area with disease symptoms/signs is evaluated about 7 days after inoculation. The tips and bases of the leaves are excluded from the evaluation. Percent disease control is then calculated by the following formula: % disease control = 100 -(% infection in treated plants)/(% infection in untreated plants)x 100 [formula]
as §3, with “system. Test compounds are typically tested over a range of concentrations covering several orders of magnitude and then ED values are calculated for comparison of compounds.” for “system.”
(§6) Compounds applied as technical material formulated in 0.5% acetone 0.05% Tween 20 water

[3] = system: Blumeria (Erysiphe) graminis DC. f.sp. hordei E. Marchal; assay: Zero day protectant test, Barley Powdery Mildew (BPM); details: barley variety Golden Promise, 0 day protectant test, side-by-side, technical material in 0.5% acetone 0.05% Tween 20 water
Text: as §4, §5
as §3, with “system. Test compounds are typically tested over a range of concentrations covering several orders of magnitude and then ED values are calculated for comparison of compounds.” for “system.”
as §6

[4] = system: Erysiphe cichoracearum DC; assay: Curative and residual control test, Cucumber Powdery Mildew (QPM); details: Golovinomyces cichoracearum, 72 h, read-out: Disease control (% efficacy); for Emax at 12.5 ppm: QPM 3 da R (3 day residual), 12,5 ppm; for Emax at 125 ppm / Emax at 1250 ppm: QPM 3 da R (3 day residual)
Text: as §1, §2, §3

[5] = 48 h, WPM 2 da C (2 day curative), 12,5 ppm, Test B
[6] = 48 h, WPM 2 da C (2 day curative), 125 ppm, Test B
[7] = 48 h, WPM 2 da C (2 day curative), 1250 ppm, Test B
[8] = 72 h, WPM 3 da R (3 day residual), 12,5 ppm, Test B
[9] = 72 h, WPM 3 da R (3 day residual), 125 ppm, Test B
[10] = 72 h, WPM 3 da R (3 day residual), 1250 ppm, Test B
[11] = 72 h, WPM 3 da C (3 day curative)
[12] = 72 h, WPM 3 da C (3 day curative), 125 ppm
[13] = 96 h, WPM 4 da R (4 day residual)
[14] = 96 h, WPM 4 da R (4 day residual), 125 ppm

| Structure (SMILES) | percent disease control at 12.5 ppm [1, 8] | percent disease control at 125 ppm [1, 9] | percent disease control at 1250 ppm [1, 10] | ED90 (ppm) [2] | ED90 (ppm) [3] | Emax at 12.5 ppm ([4]; Test B) | Emax at 125 ppm ([4]; Test B) | Emax at 1250 ppm ([4]; Test B) | percent disease control at 0.2 ppm [1, 11] | percent disease control at 1 ppm [1, 11] | percent disease control at 5 ppm [1, 11] | percent disease control at 25 ppm [1, 11] | percent disease control at 125 ppm [1, 12] | percent disease control at 0.2 ppm [1, 13] | percent disease control at 1 ppm [1, 13] | percent disease control at 5 ppm [1, 13] | percent disease control at 25 ppm [1, 13] | percent disease control at 125 ppm [1, 14] | other results |
| --- | --- | --- | --- | --- | --- | --- | --- | --- | --- | --- | --- | --- | --- | --- | --- | --- | --- | --- | --- |
| COc1cc(C)c(C(=O)c2c(OC)ccc(Br)c2Cl)c(OC)c1OC [Example 4, 5-bromo-6-chloro-6'-methyl-2,2',3',4'-tetramethoxy-benzophenone] | 99% | 100% | 100% | 5 ppm | 7 ppm | 8% | 97% | 100% | – | – | – | – | – | – | – | – | – | – | percent disease control at 12.5 ppm [1, 5]: 55%; percent disease control at 125 ppm [1, 6]: 71%; percent disease control at 1250 ppm [1, 7]: 61% |
| COc1cc(C)c(C(=O)c2c(OC)ccc(Br)c2C)c(OC)c1OC [Example 6, 5-bromo-6,6'-dimethyl-2,2',3',4'-tetramethoxy-benzophenone] | 100% | 100% | 100% | 0.1 ppm | 0.9 ppm | 35% | 92% | 100% | 17% | 27% | 43% | 60% | 64% | 58% | 90% | 100% | 100% | 100% | percent disease control at 12.5 ppm ([1]; 48 h, WPM 2 da C (2 day curative), 12,5 ppm, Test A): 90%; Emax at 12.5 ppm [1, 5]: 61%; percent disease control at 125 ppm ([1]; 48 h, WPM 2 da C (2 day curative), 125 ppm, Test A): 95%; Emax at 125 ppm [1, 6]: 89%; percent disease control at 1250 ppm ([1]; 48 h, WPM 2 da C (2 day curative), 1250 ppm, Test A): 98%; Emax at 1250 ppm [1, 7]: 87%; percent disease control at 12.5 ppm ([1]; 72 h, WPM 3 da R (3 day residual), 12,5 ppm, Test A): 100%; percent disease control at 125 ppm ([1]; 72 h, WPM 3 da R (3 day residual), 125 ppm, Test A): 100%; percent disease control at 1250 ppm ([1]; 72 h, WPM 3 da R (3 day residual), 1250 ppm, Test A): 100%; Emax at 12.5 ppm ([4]; Test A): 2%; Emax at 125 ppm ([4]; Test A): 92%; Emax at 1250 ppm ([4]; Test A): 100% |
| COc1cc(C)c(C(=O)c2c(OC)ccc(C(F)(F)F)c2C)c(OC)c1OC [Example 64, 6,6'-dimethyl-2,2',3',4'-tetramethoxy-5-trifluoromethyl-benzophenone] | – | – | – | – | – | – | – | – | 10% | 37% | 48% | 60% | 72% | 51% | 89% | 99% | 100% | 100% | – |
| COc1cc(C)c(C(=O)c2c(OC)cccc2C(F)(F)F)c(OC)c1OC [Example 65, 6'-methyl-2,2',3',4'-tetramethoxy-6-trifluoromethyl-benzophenone] | – | – | – | – | – | – | – | – | 10% | 23% | 23% | 48% | 58% | 25% | 50% | 93% | 99% | 100% | – |
| Fc1ccc(Oc2ccnc3cc(Cl)cc(Cl)c23)cc1 [Quinoxyfen, reference compound] | – | – | – | 12 ppm | 26 ppm | – | – | – | – | – | – | – | – | – | – | – | – | – | – |

— patent publication EP0897904B1, “Fungicidal 2-methoxybenzophenones” (BASF AKTIENGESELLSCHAFT, priority 1997, dated 1999)
